Here are results for 7 compounds from ChEMBL document CHEMBL4229455, “Synthesis and anticancer activity of novel bisindolylhydroxymaleimide derivatives with potent GSK-3 kinase inhibition” (Bioorg Med Chem, 2018).

The target of assay [1] is Cyclin-dependent kinase 5/CDK5 activator 1 (Homo sapiens) (UniProt Q00535+Q15078). The assay can be described thus: Inhibition of recombinant full length human CDK5/p25 expressed in bacteria assessed as residual activity at 10 uM using histone H1 as substrate in presence of [gamma-33P]ATP.
The test system of another assay is SK-MEL-28. The assay can be described thus: Cytotoxicity against human SK-MEL-28 cells assessed as cell growth at 10 uM after 48 hrs by SRB assay relative to control. Conditions: SK-MEL-28, 48 h, read-out: Activity. Format: functional. A general note: Sulforhodamine B stains cellular protein and so reports cell mass.
The next assay deals with SK-OV-3. As to the kind of experiment: Cytotoxicity against human SKOV3 cells assessed as cell growth at 10 uM after 48 hrs by SRB assay relative to control. The conditions noted are these: SK-OV-3, 48 h, read-out: Activity. Format: functional.
Assay [2] deals with Serine/threonine-protein kinase pim-1 (Homo sapiens, UniProt P11309). The assay can be described thus: Inhibition of recombinant full length human PIM1 expressed in bacteria using histone H1 as substrate in presence of [gamma-33P]ATP.
For the next assay, the target named is CDK2/Cyclin A2 (Homo sapiens, UniProt P24941). As to the kind of experiment: Inhibition of full length human CDK2/cyclin A using histone H1 as substrate in presence of [gamma-33P]ATP. It is filed as protein-complex assay.
In assay [3] the target is Glycogen synthase kinase-3 (Sus scrofa) (UniProt B2LUN4+I6LNT8). As to the kind of experiment: Inhibition of domestic porcine brain full length GSK-3alpha/beta assessed as residual activity at 10 uM using GS-1 as substrate in presence of [gamma-33P]ATP. The conditions noted are these: Sus scrofa domesticus.
A further assay concerns SNB-19. As to the kind of experiment: Cytotoxicity against human SNB19 cells assessed as cell growth at 10 uM after 48 hrs by SRB assay relative to control. It is filed as functional. The conditions noted are these: SNB-19, 48 h, read-out: Activity.
The test system of the next assay is HT-29. The assay can be described thus: Cytotoxicity against human HT-29 cells assessed as cell growth at 10 uM after 48 hrs by SRB assay relative to control. Format: functional. Conditions: HT-29, 48 h, read-out: Activity.
The subject of another assay is SF-539. As to the kind of experiment: Cytotoxicity against human SF539 cells assessed as cell growth at 10 uM after 48 hrs by SRB assay relative to control. Format: functional. The conditions noted are these: SF-539, 48 h, read-out: Activity.
A further assay concerns 786-0. The assay can be described thus: Cytotoxicity against human 786-O cells assessed as cell growth at 10 uM after 48 hrs by SRB assay relative to control. It is filed as functional. The conditions noted are these: 786-0, 48 h, read-out: Activity.
For a further assay, the system named is IGROV-1. As to the kind of experiment: Cytotoxicity against human IGROV1 cells assessed as cell growth at 10 uM after 48 hrs by SRB assay relative to control. Conditions: IGROV-1, 48 h, read-out: Activity. It is filed as functional.
The test system of a further assay is T47D. The assay can be described thus: Cytotoxicity against human T47D cells assessed as cell growth at 10 uM after 48 hrs by SRB assay relative to control. It is filed as functional. The conditions noted are these: read-out: Activity.
Another assay deals with SF-295. As to the kind of experiment: Cytotoxicity against human SF295 cells assessed as cell growth at 10 uM after 48 hrs by SRB assay relative to control. It is filed as functional. The conditions noted are these: SF-295, 48 h, read-out: Activity.
The subject of another assay is NCI-H460. The assay can be described thus: Cytotoxicity against human NCI-H460 cells assessed as cell growth at 10 uM after 48 hrs by SRB assay relative to control. Format: functional. Conditions: NCI-H460, 48 h, read-out: Activity.
Assay [4] concerns the target Receptor-interacting serine/threonine-protein kinase 3 (Homo sapiens, UniProt Q9Y572). The assay can be described thus: Inhibition of recombinant full length human RIPK3 expressed in baculovirus infected Sf9 insect cells using MBP as substrate in presence of [gamma-33P]ATP.
For a further assay, the target named is Aurora kinase B (Homo sapiens, UniProt Q96GD4). The assay can be described thus: Inhibition of recombinant full length human aurora B expressed in baculovirus infected Sf9 insect cells assessed as residual activity at 10 uM using MBP as substrate in presence of [gamma-33P]ATP.
A further assay concerns HCC 2998. The assay can be described thus: Cytotoxicity against human HCC2998 cells assessed as cell growth at 10 uM after 48 hrs by SRB assay relative to control. It is filed as functional. Conditions: HCC 2998, 48 h, read-out: Activity.
For another assay, the system named is MOLT-4. The assay can be described thus: Cytotoxicity against human MOLT4 cells assessed as cell growth at 10 uM after 48 hrs by SRB assay relative to control. It is filed as functional. Conditions: MOLT-4, 48 h, read-out: Activity.
The next assay has as its system SW-620. As to the kind of experiment: Cytotoxicity against human SW620 cells assessed as cell growth at 10 uM after 48 hrs by SRB assay relative to control. Format: functional. Conditions: SW-620, 48 h, read-out: Activity.
The next assay deals with MDA-MB-231. As to the kind of experiment: Cytotoxicity against human MDA-MB-231 cells assessed as cell growth at 10 uM after 48 hrs by SRB assay relative to control. The conditions noted are these: MDA-MB-231, 48 h, read-out: Activity. It is filed as functional.
For a further assay, the species on record is Sus scrofa domesticus. As to the kind of experiment: Inhibition of domestic porcine brain full length […] assessed as residual activity at 10 uM using RRKHAAIGSpAYSITA as substrate in presence of [gamma-33P]ATP.
The subject of a further assay is MDA-MB-468. The assay can be described thus: Cytotoxicity against human MDA-MB-468 cells assessed as cell growth at 10 uM after 48 hrs by SRB assay relative to control. It is filed as functional. Conditions: MDA-MB-468, 48 h, read-out: Activity.

pIC50: −log10 of the molar value.

Sequence of Receptor-interacting serine/threonine-protein kinase 3 (Q9Y572 whole entry): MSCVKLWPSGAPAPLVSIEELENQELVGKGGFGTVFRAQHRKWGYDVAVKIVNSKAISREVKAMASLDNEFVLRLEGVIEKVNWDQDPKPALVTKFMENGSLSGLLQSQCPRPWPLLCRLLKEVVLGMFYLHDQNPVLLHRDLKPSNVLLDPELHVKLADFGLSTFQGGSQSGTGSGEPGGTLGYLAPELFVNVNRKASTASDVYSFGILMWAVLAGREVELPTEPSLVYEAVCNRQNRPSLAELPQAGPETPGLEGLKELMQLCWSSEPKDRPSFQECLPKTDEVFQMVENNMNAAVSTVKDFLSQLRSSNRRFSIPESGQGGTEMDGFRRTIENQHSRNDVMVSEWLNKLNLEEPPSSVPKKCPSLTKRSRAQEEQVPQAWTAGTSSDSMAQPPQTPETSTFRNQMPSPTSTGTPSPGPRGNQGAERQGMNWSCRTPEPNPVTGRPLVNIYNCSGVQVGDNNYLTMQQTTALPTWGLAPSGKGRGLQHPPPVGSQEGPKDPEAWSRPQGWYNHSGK
Sequence of Cyclin-dependent kinase 5/CDK5 activator 1 (Homo sapiens) (Q00535 whole entry): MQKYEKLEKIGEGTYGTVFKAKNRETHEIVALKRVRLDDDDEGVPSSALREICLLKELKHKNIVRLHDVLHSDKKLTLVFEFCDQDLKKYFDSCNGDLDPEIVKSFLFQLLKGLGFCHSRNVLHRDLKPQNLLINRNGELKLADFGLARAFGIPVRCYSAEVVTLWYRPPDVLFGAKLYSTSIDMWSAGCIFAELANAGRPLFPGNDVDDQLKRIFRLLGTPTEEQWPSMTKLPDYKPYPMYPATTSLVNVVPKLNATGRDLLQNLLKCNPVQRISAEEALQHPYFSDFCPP
Sequence of Cyclin-dependent kinase 5/CDK5 activator 1 (Homo sapiens) (Q15078 99-307 partner limits assumed): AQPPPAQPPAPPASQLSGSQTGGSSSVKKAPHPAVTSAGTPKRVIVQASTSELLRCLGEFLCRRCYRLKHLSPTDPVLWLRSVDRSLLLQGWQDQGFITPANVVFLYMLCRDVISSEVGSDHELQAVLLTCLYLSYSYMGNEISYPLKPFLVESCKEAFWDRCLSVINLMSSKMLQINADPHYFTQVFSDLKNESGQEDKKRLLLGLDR
Sequence of Aurora kinase B (Q96GD4 whole entry): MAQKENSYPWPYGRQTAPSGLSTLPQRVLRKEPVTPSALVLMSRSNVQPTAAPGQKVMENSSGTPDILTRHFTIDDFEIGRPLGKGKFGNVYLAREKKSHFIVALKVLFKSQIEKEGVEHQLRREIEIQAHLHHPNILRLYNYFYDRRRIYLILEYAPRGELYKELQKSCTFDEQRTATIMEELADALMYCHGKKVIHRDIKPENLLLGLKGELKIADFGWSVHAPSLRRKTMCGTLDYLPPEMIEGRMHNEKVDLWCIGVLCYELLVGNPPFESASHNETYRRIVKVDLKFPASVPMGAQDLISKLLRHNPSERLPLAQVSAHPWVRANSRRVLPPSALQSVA
Sequence of Serine/threonine-protein kinase pim-1 (P11309 whole entry): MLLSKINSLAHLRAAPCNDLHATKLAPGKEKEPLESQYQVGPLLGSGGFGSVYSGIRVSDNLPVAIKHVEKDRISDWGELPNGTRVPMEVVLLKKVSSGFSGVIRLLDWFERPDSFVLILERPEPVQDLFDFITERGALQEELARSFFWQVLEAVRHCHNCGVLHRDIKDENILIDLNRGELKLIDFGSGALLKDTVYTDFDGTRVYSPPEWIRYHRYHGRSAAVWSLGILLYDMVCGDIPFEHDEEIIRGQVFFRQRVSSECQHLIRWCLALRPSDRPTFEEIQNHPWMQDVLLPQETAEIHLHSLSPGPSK

For `CC(C)n1cc(C2=C(c3cn(C)c4ccccc34)C(=O)N(O)C2=O)c2ccccc21`, the Activity in assay [1] was 34%; in assay [3], -16%; at Aurora kinase B, 95%; in the assay listed under Sus scrofa domesticus it was 98%. The growth at 10 µM in the assay on SK-MEL-28 is 112%; with SK-OV-3, 95.8%; in the assay on SNB-19, 101%; with HT-29, 105%; with SF-539, 97.6%; in the assay on 786-0 it was 86.5%. Moreover, the growth at 10 µM was 96.2% in the assay on IGROV-1; 87.3% with T47D; 101% in the assay on SF-295; 98.3% in the assay on NCI-H460; 110% in the assay on HCC 2998; 82.4% with MOLT-4. Further, the growth at 10 µM in the assay on SW-620 worked out at 101%; in the assay on MDA-MB-231, 70.1%. The pIC50 (as a rule, the negative decadic logarithm of the IC50, by convention in mol/L) in [2] was less than 5.00; on CDK2/Cyclin A2, 5.15; in assay [4], less than 5.00.
Consider `CC(C)n1cc(C2=C(c3c[nH]c4ccccc34)C(=O)N(O)C2=O)c2ccccc21`, for which the Activity stood at 71% in assay [1], 2% in assay [3], 147% at Aurora kinase B and 72% in the assay filed under Sus scrofa domesticus. For the same compound, the growth at 10 µM in the assay on SK-MEL-28 amounted to 116%; with SK-OV-3 it was 102%; in the assay with SNB-19 it was 111%; with HT-29, 99.2%; with SF-539, 97.3%; in the assay on 786-0, 77.9%. Besides, the growth at 10 µM was 111% with IGROV-1; 86.7% in the assay with T47D; 99.7% in the assay on SF-295; 95.3% with NCI-H460; 105% in the assay on HCC 2998; 77% in the assay on MOLT-4. Further, the growth at 10 µM in the assay on SW-620 was 106%; with MDA-MB-231, 89.5%. Moreover, the pIC50 (in [2]; at CDK2/Cyclin A2; in assay [4]) was less than 5.00 throughout.
As to `Cn1cc(C2=C(c3c[nH]c4ccccc34)C(=O)N(O)C2=O)c2ccccc21`, the Activity in [1] was 66%; in assay [3], -18%; at Aurora kinase B, 79%; in the assay filed under Sus scrofa domesticus it was 40%. Further, the growth at 10 µM came out at 92% with SK-MEL-28; 92.1% in the assay on SK-OV-3; 97.5% in the assay on SNB-19; 81.5% in the assay on HT-29; 95.5% in the assay with SF-539; 82% in the assay on 786-0. In addition, the growth at 10 µM was determined as 83% with IGROV-1; 60.9% in the assay with T47D; 88.8% with SF-295; 87.4% in the assay on NCI-H460; 89.9% in the assay on HCC 2998; 79% in the assay on MOLT-4. In addition, the values for the growth at 10 µM in the assay with SW-620 and in the assay with MDA-MB-231 were 87.7% and 59.5%, respectively. For the same compound, the pIC50 in assay [2] is 5.30; on CDK2/Cyclin A2, less than 5.00; in [4], less than 5.00.
As to `Cn1cc(C2=C(c3cn(CCCCCC(=O)O)c4ccccc34)C(=O)N(O)C2=O)c2ccccc21`, the Activity in assay [1] stood at 34%; in assay [3], 2%; on Aurora kinase B it was 71%; in the assay filed under Sus scrofa domesticus, 80%. For the same compound, the growth at 10 µM with SK-MEL-28 came to 106%; with SK-OV-3, 99.8%; in the assay on SNB-19, 104%; in the assay with HT-29, 105%; in the assay on SF-539, 98.9%; in the assay on 786-0 it was 96.3%. In addition, the growth at 10 µM was 103% in the assay on IGROV-1; 85.4% with T47D; 102% with SF-295; 102% with MDA-MB-468; 108% in the assay on NCI-H460; 110% with HCC 2998. The results for the growth at 10 µM in the assay on MOLT-4, in the assay on SW-620 and in the assay with MDA-MB-231 were 92.6%, 98.9% and 84.7%, respectively. In addition, the pIC50 is less than 5.00 in [2], 5.40 at CDK2/Cyclin A2 and less than 5.00 in assay [4].
As for `O=C(O)CCCCCn1cc(C2=C(c3c[nH]c4ccccc34)C(=O)N(O)C2=O)c2ccccc21`, the Activity was determined as 60% in assay [1], 8% in assay [3], 63% at Aurora kinase B and 83% in the assay listed under Sus scrofa domesticus. Moreover, the growth at 10 µM with SK-MEL-28 amounted to 111%; with SK-OV-3, 81%; with SNB-19 it was 107%; with HT-29 it was 101%; in the assay with SF-539, 96.3%; with 786-0, 93%. For the same compound, the growth at 10 µM was 93.4% in the assay on IGROV-1; 96.2% in the assay on T47D; 105% in the assay on SF-295; 104% in the assay on MDA-MB-468; 103% in the assay on NCI-H460; 119% in the assay with HCC 2998. For the same compound, the growth at 10 µM in the assay with MOLT-4 amounted to 99.7%; in the assay on SW-620, 95.3%; in the assay on MDA-MB-231, 92.6%. The pIC50 (in assay [2]; on CDK2/Cyclin A2; in [4]) was less than 5.00 in each case.
`Cn1cc(C2=C(c3cn(CCCCCC#N)c4ccccc34)C(=O)N(O)C2=O)c2ccccc21`: the Activity was found to be 49% in assay [1], 8% in [3], 71% on Aurora kinase B and 88% in the assay listed under Sus scrofa domesticus. Further, the growth at 10 µM in the assay on SK-MEL-28 came to 109%; with SK-OV-3, 86.5%; in the assay with SNB-19, 104%; in the assay with HT-29, 90.1%; in the assay with SF-539 it was 98.4%; with 786-0, 83.7%. The growth at 10 µM is 93.8% with IGROV-1; 78.5% in the assay on T47D; 107% in the assay on SF-295; 87.5% in the assay on MDA-MB-468; 99.3% in the assay on NCI-H460; 111% in the assay with HCC 2998. The growth at 10 µM with MOLT-4 was 95.7%; with SW-620 it was 101%; in the assay with MDA-MB-231 it was 58.9%. Moreover, the pIC50 (in assay [2]; at CDK2/Cyclin A2; in assay [4]) was less than 5.00 in each case.
On to `Cn1cc(C2=C(c3cn(C)c4ccccc34)C(=O)N(O)C2=O)c2ccccc21`, for which the Activity in assay [1] is 82%; in assay [3], -13%; on Aurora kinase B, 84%; in the assay filed under Sus scrofa domesticus it was 104%. Further, the growth at 10 µM is 107% with SK-MEL-28; 101% in the assay with SK-OV-3; 102% in the assay on SNB-19; 102% in the assay on HT-29; 107% in the assay on SF-539; 103% in the assay with 786-0. In addition, the growth at 10 µM with IGROV-1 was determined as 109%; with T47D, 96.4%; in the assay with SF-295 it was 104%; in the assay with MDA-MB-468, 86.4%; with NCI-H460, 99.5%; with HCC 2998 it was 106%. Also, the growth at 10 µM in the assay with MOLT-4 amounted to 101%; in the assay on SW-620 it was 95.9%; in the assay on MDA-MB-231, 98%. Also, the pIC50 (in [2]; at CDK2/Cyclin A2; in assay [4]) was less than 5.00 each time.
